Assay [1] has as its system S. epidermidis adherence to HaCat cells. Put plainly: Adherence of FITC-labeled S. epidermidis to HaCat cells. To be noted: 5 μg RIP, 10^6 CFU, 30 min at 37° C. It counts as cell-based. As to the method: FIG. 14A is a graph depicting adherence in the presence of RIP (RIP+) and in the absence of RIP (RIP−). FITC-labeled bacterial cells (10^6 CFU) were applied to microtiter plates containing confluent 10^4 HaCat cells, in the presence or absence of 5 μg RIP (RIP+/−). Cells were incubated for 30 min at 37° C., washed in PBS and fluorescence at 485/530 nm was determined.
Virulence of S. epidermidis is also often associated with their ability to adhere to host cells and to form biofilm on medical devices. To test whether RIP can prevent S. epidermidis from colonizing host cells and therefore be a candidate for therapy and prevention, FITC-labeled S. epidermidis were incubated in the presence or absence of RIP with a confluent layer of keratinocytes (HaCat cells) for 30 min.

The subject of assay [2] is S. epidermidis GISE strain. The experiment in a line: Rat subcutaneous Dacron graft infection model, GISE strain. It counts as in vivo. To be noted: for Bacterial concentration, GISE: 2×10^7 bacteria, explanted day 7; for Bacterial concentration, GISE / Bacterial load on graft, GISE: mean ± SD; for Bacterial load on graft, GISE: Table 3A S. epidermidis. On the procedure: (§1) Rats (Wistar adult males (300-350 g), n=15/experimental group) were anaesthetized, hair on their back shaved and the skin cleansed with 10% povidone-iodine solution. A subcutaneous pocket was made on the side of the median line by a 1.5 cm incision. Aseptically, 1 cm^2 sterile collagen-sealed Dacron graft (Albograft™, Sorin Biomedica Cardio, S.p.A., Saluggi VC, Italy) was implanted into the pocket. […] Pockets were closed by skin clips and 1 ml sterile saline solution with or without 2×10^7 bacteria was inoculated onto the graft surface using a tuberculin syringe to create a subcutaneous fluid-filled pocket. Some of the animals that had grafts soaked only with RIP or saline were injected intraperitoneally with antibiotics (cefazolin 30 mg/kg, imipenem 30 mg/kg, teicoplanin 10 mg/kg, levofloxacin 10 mg/kg). Grafts were explanted 7 days following implantation.
(§2) The explanted grafts were placed in sterile tubes, washed in sterile saline solution, placed in tubes containing 10 ml of phosphate-buffered saline solution and sonicated for 5 min to remove the adherent bacteria from the grafts. Quantitation of viable bacteria was performed by culturing serial 10-fold dilutions (0.1 ml) of the bacterial suspension on blood agar plates. All plates were incubated at 37° C. for 48 hr and evaluated for the presence of the strain. Bacteria were quantitated by counting the number of colony forming unites (CFU) per plate. To determine if bacteria were efficiently removed from the graft, washed and sonicated grafts were observed under a Nikon Eclipse E 600 optical microscope (Nikon Y-THS, Japan).
(§3) Quantitative culture results of the in vivo experiments were presented as mean+SD of the mean. Comparisons of the results were performed by the analysis of variance (ANOVA) on the log-transformed data. Statistical analysis was performed for in vitro adhesion assays using Student's t-Test by Microsoft Excel (Microsoft, Wash.). Significance was accepted when the P value was <0.05.
(§4) To test if RIP can prevent graft-associated infections, Dacron grafts were coated with or without RIP, and with or without various types of antibiotics (for local prophylaxis experiments). Coated grafts were implanted in rats, bacteria injected into the implants, implants removed after a week, and bacterial load determined. Alternatively, Dacron grafts were first coated with RIP, bacteria injected, and antibiotics were administered by the intraperitoneal route (for parenteral prophylaxis experiments). As a negative control, grafts were implanted without local or parenteral RIP/antibiotics prophylaxis and no bacteria were injected. As a positive control, grafts were implanted, bacteria were injected, but no RIP/antibiotics prophylaxis was given.
(§5) Animals (15/group) received a Dacron-graft implanted in a subcutaneous pocket. Graft was subsequently infected with either S. epidermidis (tested on MSSE, MRSE and GISE) or with S. aureus (tested on MSSA, MRSA and GISA). […]

A further assay has as its system S. aureus 8325-4. Conditions: rabbits; cited from earlier work.
Assay [3] has as its system bacterial adhesion to polystyrene, silicone and polyurethane. Conditions: cited from earlier work.
The test system of the next assay is S. aureus MS. Conditions: rabbits; cited from earlier work.
In assay [4] the test system is S. epidermidis MSSE strain. Put plainly: Rat subcutaneous Dacron graft infection model, MSSE strain. It is filed as in vivo. To be noted: for Bacterial concentration, MSSE: 2×10^7 bacteria, explanted day 7; for Bacterial concentration, MSSE / Bacterial load on graft, MSSE: mean ± SD; for Bacterial load on graft, MSSE: Table 3A S. epidermidis. As to the method: as §1, §2, §3, §4, §5

A further assay has as its system S. aureus Smith Diffuse. Conditions: mice; cited from earlier work.
[5] abbreviates: A. Local prophylaxis: graft soaked 20 min in RIP 10 mg/l and/or antibiotic (mupirocin 100, quinupristin-dalfopristin 50, levofloxacin 30, rifampin 5 mg/l), rats.
The mark [6] stands for this setting: B. Parenteral prophylaxis: antibiotic intraperitoneally (cefazolin 30, imipenem 30, teicoplanin 10, levofloxacin 10 mg/kg), RIP as 10 mg/l graft soak, rats.
[7] abbreviates: RIP local (graft soaked in 20 mg/l RIP).
Setting [8] is: RIP parenteral (10 mg/l RIP i.p.).
The mark [9] stands for this setting: peptide-soaked/coated Dacron graft (RIP 10 mg/l), no antibiotic, rats, day 7.

Where no end group is shown, it is not given here.

Consider YSPWTNF(—NH2) (YSPWTNF-NH2) [RIP], for which, in assay [1], the “S. epidermidis adherence to HaCat cells” value was “significantly (p<0.05) reduced”. Also, the results for the “Bacterial concentration, GISE” value in assay [2] (setting [5]) and in assay [2] (setting [6]) were 6.2 ± 2.4 ×10^4 CFU/ml and 6.2 ± 2 ×10^4 CFU/ml, respectively. Also, the “Bacterial load on graft, GISE” value in assay [2] (setting [7]) is 0.46 ± 0.13 ×10^4 CFU/ml; in assay [2] (RIP local + RIP parenteral), 0.00 ± 0 ×10^4 CFU/ml; in assay [2] (setting [8]), 0.31 ± 0.6 ×10^4 CFU/ml. In addition, in assay [2] (setting [9]), the “Quantitative culture results of explanted graft, GISE strain” value is reported as 6.2×10^4±2.0×10^4 CFU/ml. Also, the “RIP graft treatment inhibiting bacteria better than parenteral antibiotics prophylaxis” value in assay [2] (rats inoculated with GISE) is reported as 10 to 100 fold. In the assay on S. aureus 8325-4, the “Suppressing S. aureus infection: keratitis” value is listed as “extremely effective”. Besides, in assay [3], the “Bacterial adhesion to plastic” value is listed as “decreased”. The “Suppressing S. aureus infection: osteomyelitis” value with S. aureus MS is recorded as “extremely effective”. The “Bacterial concentration, MSSE” value in assay [4] (setting [5]) and in assay [4] (setting [6]) was 0.91 ± 0.23 ×10^4 CFU/ml throughout. Besides, the “Bacterial load on graft, MSSE” value in assay [4] (setting [7]) was 0.08 ± 0.024 ×10^4 CFU/ml; in assay [4] (RIP local + RIP parenteral), 0.00 ± 0 ×10^4 CFU/ml; in assay [4] (setting [8]), 0.067 ± 0.019 ×10^4 CFU/ml. For the same substance, the “Quantitative culture results of explanted graft, MSSE strain” value in assay [4] (setting [9]) was 9.1×10^3±2.3×10^3 CFU/ml. Also, the “Suppressing S. aureus infection: cellulitis” value in the assay with S. aureus Smith Diffuse is “extremely effective”.

Values taken from patent publication US8067015B2, “Methods and compositions for the treatment and prevention of Staphylococcus and other bacterial infections” (priority 1997, dated 2011).
